Data: patent US10457662B2, “Substituted amides for treating and preventing cancer” (The Regents of the University of Michigan, priority 2015, dated 2019)

Experiments:
[1] = system: HepG2; assay: MTT assay, HepG2; format: cell-based; settings: Homo sapiens, HCC cell line
Procedure: (§1) In order to understand its potential selectivity for different types of cancer and choose the best model for further characterization, QN523 was tested in a panel of 12 cancer cell lines with various genetic and pathological backgrounds (Table 2). […] Because of remarkable potency of QN-523 in pancreatic cancer in-depth preclinical studies in this disease model were performed.

[2] = system: MiaPaCa-2 cells; assay: Bru-seq analysis of RNA synthesis in MiaPaCa-2; format: cell-based; settings: 1 μM
Procedure: In order to understand the mechanism of action for QN523 in pancreatic cancer, Bru-seq was performed to evaluate global changes in gene synthesis after QN523 treatment. […] During this time, the cells begin initiating cascade of pharmacological events unique to these compounds. However, cell death pathways will be initiated at later time points well beyond 24 hrs. Therefore, the Bru-seq experiments were performed after 24 hrs drug (1 μM) exposure. Using RPKM>0.5, gene size >300 bp as the cut off values to eliminate background noises, there were totally 8521 expressed genes in the QN523 and DMSO control samples out of around 22,000 genes in the reference genome.
Bru-seq data from QN523 treatment (1 uM, 24 h) and vehicle controls in MiaPaCa-2 was processed by filtering for genes with RPKM>0.5, gene size >300 bp. Expressed genes were then preranked according to fold change comparing to control and subjected to analysis.

[3] = system: GRP78, CHOP, ATF3, GDF15; assay: Western blotting of stress responsive proteins in MiaPaCa-2; format: cell-based; settings: 72 h, western blotting
Procedure: FIG. 11: QN523 induces protein expression of stress markers dose-dependently.
This example describes the validation of biomarkers GDF15, ATF3, DDIT3, HSPA5, WIPI1, GABARAPL1 and MAP1LC3B in pancreatic cancer cell lines. To validate the findings from bioinformatics analysis basing on Bru-seq experiments, the proposed biomarkers were further tested in pancreatic cancer cell lines. […] However, the potency of Sulindac is much lower than that of QN523, with IC50 of 300 μM in MiaPaCa-2.
In addition, primary antibodies for LC3B, survivin, cyclin D1, Stat3 and phosphorylated Stat3 (Y705) are from Cell Signaling Technology.

[4] = system: Jurkat; assay: MTT assay, Jurkat; format: cell-based; settings: Homo sapiens, leukemia cell line
Procedure: as §1

[5] = system: MiaPaCa-2; assay: Colony formation assay, MiaPaCa-2; format: cell-based; settings: 0.1 μM; 24 h treatment
Description: A) QN523 inhibits colony formation in PDAC cell lines. […] Data points represent Mean±SD from three independent experiments.
The cytotoxicity of QN523 was further evaluated in three pancreatic cancer cell lines using colony formation assay. Using numbers and sizes of colonies as the experimental readout, this long-term assay estimates both anti-proliferative and cytotoxic effect.

[6] = system: panel of 12 cancer cell lines; assay: MTT assay, panel of 12 cancer cell lines; format: cell-based; settings: range over the panel; read-out: IC50 values across all 12 cell lines
Procedure: as §1

[7] = system: SNU449; assay: MTT assay, SNU449; format: cell-based; settings: Homo sapiens, SNU-449, HCC cell line
Procedure: as §1

[8] = system: MiaPaCa-2 cells; assay: Ingenuity Pathway Analysis (IPA) of Bru-seq gene lists; settings: 1 μM, 24 h
Description: Top 20 canonical pathways regulated by QN523. Histogram represents percentage of genes regulated in the pathway; numbers on the histogram are total numbers of genes in the specific pathway. […] Orange line represents statistical significance in regulation of the indicated pathway.

Question: How did the IC50 [1] turn out when O=C(Nc1cccc2cccnc12)c1cnccn1 [QN523, Pyrazine-2-carboxylic acid quinolin-8-ylamide] was run?
Answer: The IC50 was 500 nM.

Question: What about the “number of genes downregulated” value ([2]; 24 h, of 8521 expressed genes) of the same compound?
Answer: Its value is 123 genes.

Question: What about the “number of genes upregulated more than two fold” value ([2]; 24 h, of 8521 expressed genes) of the same compound?
Answer: Its value is 275 genes.

Question: What about the “Fold Change ATF3” value ([2]; RNA synthesis, 24 h vs control) of the same compound?
Answer: Its value is 22.1 fold.

Question: And the “Fold Change AURKAIP1” value ([2]; RNA synthesis, 24 h vs control)?
Answer: Its value is −2.3 fold.

Question: What about the “Fold Change C9orf140” value ([2]; RNA synthesis, 24 h vs control) of the same compound?
Answer: Its value is −2.5 fold.

Question: And the “Fold Change C17orf62” value ([2]; RNA synthesis, 24 h vs control)?
Answer: Its value is −2.5 fold.

Question: What about the “Fold Change C19orf60” value ([2]; RNA synthesis, 24 h vs control) of the same compound?
Answer: Its value is −2.3 fold.

Question: What about the “Fold Change C19orf76” value ([2]; RNA synthesis, 24 h vs control) of the same compound?
Answer: The value was −2.3 fold.

Question: What about the “Fold Change CCDC85C” value ([2]; RNA synthesis, 24 h vs control) of the same compound?
Answer: The value was −2.4 fold.

Question: What about the “Fold Change CCNG2” value ([2]; RNA synthesis, 24 h vs control) of the same compound?
Answer: The value was 6.6 fold.

Question: What about the “Fold Change CD55” value ([2]; RNA synthesis, 24 h vs control) of the same compound?
Answer: The value was 6.3 fold.

Question: What about the “Fold Change CXCL3” value ([2]; RNA synthesis, 24 h vs control) of the same compound?
Answer: Its value is 11.1 fold.

Question: What about the “Fold Change DDIT3” value ([2]; RNA synthesis, 24 h vs control) of the same compound?
Answer: Its value is 10.7 fold.

Question: And the “Fold Change DNAJB9” value ([2]; RNA synthesis, 24 h vs control)?
Answer: Its value is 7.8 fold.

Question: And the “Fold Change FAM129A” value ([2]; RNA synthesis, 24 h vs control)?
Answer: Its value is 16.0 fold.

Question: And the “Fold Change FASN” value ([2]; RNA synthesis, 24 h vs control)?
Answer: Its value is −2.4 fold.

Question: And the “Fold Change GABARAPL1” value ([2]; RNA synthesis, 24 h vs control)?
Answer: Its value is 8.2 fold.

Question: What about the “Fold Change HERPUD1” value ([2]; RNA synthesis, 24 h vs control) of the same compound?
Answer: The value was 10.0 fold.

Question: What about the “Fold Change HMOX1” value ([2]; RNA synthesis, 24 h vs control) of the same compound?
Answer: The value was 13.6 fold.

Question: And the “Fold Change HPDL” value ([2]; RNA synthesis, 24 h vs control)?
Answer: Its value is −2.4 fold.

Question: What about the “Fold Change HSPA5” value ([2]; RNA synthesis, 24 h vs control) of the same compound?
Answer: The value was 7.9 fold.

Question: And the “Fold Change LOC344887” value ([2]; RNA synthesis, 24 h vs control)?
Answer: The value was 16.7 fold.

Question: What about the “Fold Change MAP1LC3B” value ([2]; RNA synthesis, 24 h vs control) of the same compound?
Answer: The value was 6.9 fold.

Question: And the “Fold Change MXD3” value ([2]; RNA synthesis, 24 h vs control)?
Answer: The value was −2.3 fold.

Question: What about the “Fold Change NAT14” value ([2]; RNA synthesis, 24 h vs control) of the same compound?
Answer: Its value is −2.4 fold.

Question: What about the “Fold Change OSGIN1” value ([2]; RNA synthesis, 24 h vs control) of the same compound?
Answer: Its value is 8.0 fold.

Question: What about the “Fold Change PRKCDBP” value ([2]; RNA synthesis, 24 h vs control) of the same compound?
Answer: The value was −2.3 fold.

Question: What about the “Fold Change RANGRF” value ([2]; RNA synthesis, 24 h vs control) of the same compound?
Answer: The value was −2.3 fold.

Question: And the “Fold Change RNASEH2C” value ([2]; RNA synthesis, 24 h vs control)?
Answer: The value was −2.3 fold.

Question: What about the “Fold Change RPL23AP32” value ([2]; RNA synthesis, 24 h vs control) of the same compound?
Answer: Its value is −2.3 fold.

Question: What about the “Fold Change SAT1” value ([2]; RNA synthesis, 24 h vs control) of the same compound?
Answer: Its value is 7.2 fold.

Question: And the “Fold Change SCARNA10” value ([2]; RNA synthesis, 24 h vs control)?
Answer: Its value is −2.4 fold.

Question: What about the “Fold Change SEMA6B” value ([2]; RNA synthesis, 24 h vs control) of the same compound?
Answer: Its value is −2.4 fold.

Question: What about the “Fold Change SLC37A4” value ([2]; RNA synthesis, 24 h vs control) of the same compound?
Answer: The value was −2.3 fold.

Question: What about the “Fold Change SLFN5” value ([2]; RNA synthesis, 24 h vs control) of the same compound?
Answer: Its value is 10.1 fold.

Question: What about the “Fold Change TERC” value ([2]; RNA synthesis, 24 h vs control) of the same compound?
Answer: Its value is −2.4 fold.

Question: And the “Fold Change THAP11” value ([2]; RNA synthesis, 24 h vs control)?
Answer: Its value is −2.5 fold.

Question: And the “Fold Change TRIB3” value ([2]; RNA synthesis, 24 h vs control)?
Answer: Its value is 14.3 fold.

Question: What about the “Fold Change UPP1” value ([2]; RNA synthesis, 24 h vs control) of the same compound?
Answer: The value was 18.4 fold.

Question: What about the “Fold Change WIPI1” value ([2]; RNA synthesis, 24 h vs control) of the same compound?
Answer: The value was 15.3 fold.

Question: What about the “Fold Change ZDHHC12” value ([2]; RNA synthesis, 24 h vs control) of the same compound?
Answer: The value was −2.4 fold.

Question: And the “protein levels of stress responsive markers HSPA5, DDIT3, ATF3 and GDF15” value [3]?
Answer: Its value is “dose dependent upregulation”.

Question: And the IC50 [4]?
Answer: The IC50 was roughly 100 nM.

Question: And the “suppression of MiaPaCa-2 colonies” value [5]?
Answer: Its value is “complete suppression of MiaPaCa-2 colonies”.

Question: What about the IC50 [6] of the same compound?
Answer: Its IC50 is 100 to 5700 nM.

Question: And the IC50 [7]?
Answer: Its IC50 is 400 nM.

Question: What about the “genes up-regulated in unfolded protein response, ER stress pathway and circadian rhythm signaling” value [8] of the same compound?
Answer: Its value is “about 25%”.
